# Test results reported in patent US20190269792A1, “NANOPARTICLE COMPOSITIONS COMPRISING CD38 AND METHODS OF USE THEREOF” (Washington University, priority 2016, published 2019).
# Tests used:
# [1] = tested on: MM cells; assay: Anti-CD38 chitosan NPs uptake mechanism (endosome co-localization, uptake inhibitors, 4° C.); assay type: cell-based, human; details: 30 min pre-incubation with inhibitor (cytochalasin D 1 μM, chlorpromazine 2 μM, nystatin 0.5 μg/ml, EGA 2.5 μM), then 2 h NPs
# Protocol: Endocytosis is critical to the uptake of NPs in order to allow toxic effects in cells. MM cells were plated on glass bottom 8 well chambers and allowed to adhere overnight. CellLight Early Endosomes-GFP BacMam 2.0 reagent (targeting rab5) was added to result in a final concentration of 30 particles per cells and allowed to incubate with the cells for 18-24 h. Cells were washed twice with PBS and incubated with AF633 anti-CD38 chitosan NPs for 24 h. Cells were again washed twice with PBS and allowed to stay in phenol red free medium for imaging live under culture conditions of 37° C. and 5% CO2 at specified time points using FV1000 confocal microscope. To understand the process of internalization of anti-CD38 chitosan NPs, MM cells were pre-treated with inhibitors of macropinocytosis and phagocytosis (cytochalasin D), clathrin-mediated endocytosis (chlorpromazine), caveolae-mediated endocytosis (nystatin), or late endocytosis (EGA), prior to exposure to anti-CD38 chitosan NPs. […] MM cells (1×10^6 cell/ml) were pre-incubated at 37° C. with no inhibitor (Ctrl), cytochalasin D 1 μM, chlorpromazine 2 μM, nystatin 0.5 μg/ml, and EGA 2.5 μM or at 4° C. as control of the active uptake for 30 min. Cells were washed with PBS and incubated with AF633 anti-CD38 chitosan NPs for 2 h. Then, cells were washed and analyzed by flow cytometry for the fluorescence intensity of AF633.
# [2] = tested on: MM cells; assay: Effect of macropinocytosis and endocytosis inhibitors on survival of MM cells by MTT; assay type: cell-based; details: pre-incubation at 37° C. for 30 min; cytochalasin D 1 μM, chlorpromazine 2 μM, nystatin 0.5 μg/ml, EGA 2.5 μM
# [3] = tested on: MM1s-GFP-Luc cells; assay: MM tumor progression and survival in vivo; parameters: species or system SCID mice; details: BTZ 1 mg/kg once a week
# Protocol: (§1) MM1s-GFP-Luc cells were injected into forty female, 7-week old SCID mice i.v. at the concentration of 2×10^6 cells per mouse and tumor progression was evaluated using BLI. After 4 weeks, tumor bearing mice were randomized into 4 groups of 10 animals each and treated with: (i) vehicle, (ii) BTZ as a free drug (1 mg/kg once a week), (iii) non-targeted NPs loaded with BTZ equivalent amounts to 1 mg/kg (once a week), (iv) and anti-CD38 NPs loaded with BTZ equivalent amounts to 1 mg/kg (once a week). Tumor progression was followed in the 4 groups twice a week (for 5 weeks) by BLI; moreover the survival, weight, and general health of the animals was followed. In addition, 3 mice were taken from each group 3 weeks after the beginning of the treatment, and specimens of the BM, blood smear, spleen, liver, kidney, brain, spinal-cord and intestine were fixed and pathologically evaluated for treatment efficacy and histological tissue damage.
# [4] = tested on: MM cell lines (MM.1S, H929, and RPMI8826); assay: Cell viability of MM cells by MTT; assay type: cell-based, human; details: BTZ 5 nM or equivalent, 48 h
# Protocol: MM cell lines (MM.1S, H929, and RPMI8826) and PB MNCs were cultured with vehicle (control), BTZ as a free drug (5 nM), empty NPs, non-targeted NPs loaded with BTZ equivalent amounts to 5 nM, and anti-CD38 NPs loaded with BTZ equivalent amounts to 5 nM for 48 h. Cell viability was assessed using MTT solution followed by absorbance reading at 570 nm using a spectrophotometer as previously described [19]. Briefly, the MTT solution was added to the cells 48 h after starting the treatment, and 2-4 h later the stop solution was added.
# [5] = tested on: MM.1S in 3DTEBM cultures; assay: Survival of MM cells in 3D tissue engineered bone marrow (3DTEBM); assay type: cell-based, human; details: BTZ 10 nM or equivalent, 48 h
# Protocol: MM.1S (pre-labeled with Invitrogen cell tracers DiO (10 μg/ml) for 1 h) were cultured in relevant three-dimensional tissue engineered bone marrow (3DTEBM) cultures through crosslinking of fibrinogen as previously described. The effect of vehicle (control), BTZ as a free drug (10 nM), empty chitosan NPs, non-targeted chitosan NPs loaded with BTZ equivalent amounts to 10 nM, and anti-CD38 chitosan NPs loaded with BTZ equivalent amounts to 10 nM for 48 h was analyzed by flow cytometry. Higher BTZ doses (10 nM) are used in the 3DTEBM based on the known drug resistance of the cells in 3DTEBM cultures. Cell proliferation assays were performed by digestion of 3DTEBM cultures with type I collagenase (25 mg/ml for 2-3 h at 37° C.), followed by flow cytometry analysis using MACSQuant Analyzer (Miltenyi Biotec), and the data was analyzed using FlowJo program v10 (Ashland, Oreg.). Moreover, 3DTEBM cultures treated with AF633 anti-CD38 chitosan NPs loaded with BTZ equivalent amounts to 10 nM were imaged to determine NPs distribution by confocal microscopy after 24 h incubation.
# [6] = tested on: H929 cells; assay: Cell cycle by propidium iodide flow cytometry; assay type: cell-based, human; details: BTZ 5 nM or equivalent, 48 h
# Protocol: Briefly, cells were washed, fixed with 70% ethanol, and washed again with PBS. RNA was degraded by incubation in RNAase for 30 minutes at 37° C., and the DNA was stained with PI solution for 10 minutes, then cells were analyzed by flow cytometry.
# [7] = tested on: PB MNCs; assay: Cell viability of normal PB MNCs by MTT; assay type: cell-based, human; details: BTZ 5 nM or equivalent, 48 h
# Protocol: MM cell lines (MM.1S, H929, and RPMI8826) and PB MNCs were cultured with vehicle (control), BTZ as a free drug (5 nM), empty NPs, non-targeted NPs loaded with BTZ equivalent amounts to 5 nM, and anti-CD38 NPs loaded with BTZ equivalent amounts to 5 nM for 48 h. Cell viability was assessed using MTT solution followed by absorbance reading at 570 nm using a spectrophotometer as previously described. Briefly, the MTT solution was added to the cells 48 h after starting the treatment, and 2-4 h later the stop solution was added.
# [8] = Side effects in vivo (weight loss, hair loss, histological tissue damage); parameters: species or system SCID mice; details: BTZ 1 mg/kg once a week
# Protocol: as §1
# [9] = tested on: H929 cells; assay: Apoptosis by Annexin V / PI flow cytometry; assay type: cell-based, human; details: BTZ 5 nM or equivalent, 48 h
# Protocol: H929 cells (1×10^6 cell/ml) were cultured with vehicle (control), BTZ as a free drug (5 nM), empty chitosan NPs, non-targeted chitosan NPs loaded with BTZ equivalent amounts to 5 nM, and anti-CD38 chitosan NPs loaded with BTZ equivalent amounts to 5 nM for 48 h, and apoptosis was analyzed as previously described. Cells were washed and resuspended in 1× Annexin binding buffer, incubated with Annexin V for 15 minutes followed by staining with PI for extra 15 minutes, 1× binding buffer was added, and the cells were analyzed with flow cytometry.
# [10] = tested on: MM cells cultured in normoxic (21% O2) or hypoxic (1% O2) conditions; assay: Hypoxia-mediated drug resistance; assay type: cell-based, human; details: BTZ 5 nM or equivalent, 48 h
# Protocol: Furthermore, the effect of vehicle (control), BTZ as a free drug (5 nM), empty chitosan NPs, non-targeted chitosan NPs loaded with BTZ equivalent amounts to 5 nM, and anti-CD38 chitosan NPs loaded with BTZ equivalent amounts to 5 nM on proliferation of MM cells cultured in normoxic (21% O2) or hypoxic (1% O2) conditions for 48 h was measured.
# [11] = tested on: MM.1S cells co-culture with MM-derived MSP-1 stromal cell line; assay: Cell adhesion-mediated drug resistance, co-culture with MSP-1 stroma; assay type: cell-based, human; details: BTZ 5 nM or equivalent, 48 h
# Protocol: In addition, cell proliferation assay of MM.1S cells co-culture with or without MM-derived MSP-1 stromal cell line with vehicle (control), BTZ as a free drug (5 nM), empty chitosan NPs, non-targeted chitosan NPs loaded with BTZ equivalent amounts to 5 nM, and anti-CD38 chitosan NPs loaded with BTZ equivalent amounts to 5 nM for 48 h was analyzed.
# [12] = tested on: MM.1S cells; assay: Boron cellular accumulation by ICP-OES; assay type: cell-based, human; details: 100 nM, 1.5 h
# Protocol: MM.1S cells (40×10^6 cell/ml) were cultured with vehicle (control), BTZ as a free drug (100 nM), and anti-CD38 chitosan NPs loaded with BTZ equivalent amounts to 100 nM for 1.5 h. After the treatment the cells were spun down, washed, and cell pellet was digested in nitric acid. After dilution with deionized water, samples were microwave digested and then analyzed by ICP-OES for boron content.
# [13] = tested on: proteasome; assay: Proteasome activity assay (AMC-tagged peptide substrate) in extracts of treated MM cells; assay type: cell-based, human; details: for effect of inhibition of macropinocytosis or endocytosis pathways on proteasome activity: free drug 5 nM with uptake inhibitors
# Protocol: Cell extracts were prepared in NP-40 lysis buffer from control and treated cells (BTZ as a free drug (5 nM), empty chitosan NPs, non-targeted chitosan NPs loaded with BTZ equivalent amounts to 5 nM, and anti-CD38 NPs loaded with BTZ equivalent amounts to 5 nM) retrieved after 2 h treatment with BTZ. Proteasome activity was determined using the AMC-tagged peptide substrate in a Proteasome Activity Assay Kit (abcam, Cambridge, Mass., USA) according to the manufacturer's protocol. Fluorescence was determined in a SpectraMax i3 Multi-Mode Detection Platform (Molecular Devices, Sunnyvale, Calif., USA) and proteasome activity was expressed as the amount of proteasome which generates 1.0 nmol of AMC per minute at 37° C.
# Proteasome activity inhibition was also measured in combination with inhibitors of macropinocytosis and phagocytosis (cytochalasin D), clathrin-mediated endocytosis (chlorpromazine), caveolae-mediated endocytosis (nystatin), or late endocytosis (EGA), prior to exposure to anti-CD38 chitosan NPs loaded with BTZ equivalent amounts to 5 nM. MM cells were pre-incubated at 37° C. with no inhibitor (Ctrl), cytochalasin D 1 μM, chlorpromazine 2 μM, nystatin 0.5 μg/ml, and EGA 2.5 μM for 30 min. Cells were washed with PBS and incubated with anti-CD38 chitosan NPs loaded with BTZ equivalent amounts to 5 nM, then proteasome Activity Assay Kit was followed as in the previous experiment.
compound,measurement,setting,value
Cc1cccc(C)c1NC(=O)N/N=C/c1ccc(Br)cc1 [EGA],decrease of the uptake of the anti-CD38 NPs,[1],about 25%
same,effect on cell survival,[2],no effect on cell survival
CN(C)CCCN1c2ccccc2Sc2ccc(Cl)cc21 [chlorpromazine],decrease of the uptake of the anti-CD38 NPs,[1],about 25%
C[C@@H]1[C@H](O)[C@@H](C)/C=C/C=C/CC/C=C/C=C/C=C/C=C/C(O[C@H]2O[C@H](C)[C@@H](O)[C@H](N)[C@@H]2O)CC2O[C@](O)(CC(O)C(O)CCC(O)CC(O)CC(O)CC(=O)O[C@H]1C)CC(O)C2C(=O)O (stereo partly shown) [nystatin],decrease of the uptake of the anti-CD38 NPs,[1],about 25%
same,effect on cell survival,[2],no effect on cell survival
"CC(C)C[C@H](NC(=O)[C@H](Cc1ccccc1)NC(=O)c1cnccn1)B(O)O [free BTZ, bortezomib]",day by which all the group died,[3],≤ 29 days
same,tumor size by BLI compared to vehicle treatment,[3]; 5 weeks,efficacious in reducing tumor size
same,killing of MM cells,[4],20%
same,killing of MM cells in the 3DTEBM,[5],8%
same,effect on cell cycle,[6],induced G0-G1 arrest
same,effect on survival of PB MNCs,[7],no effect
same,hair loss compared to the vehicle-treated group,[8],significant hair loss
same,"early apoptosis, late apoptosis and cell death",[9],induced increase early apoptosis and no effect on late apoptosis and death
same,hypoxia-mediated drug resistance (1% O2 versus 21% O2),[10],induced resistance
same,cell adhesion-mediated drug resistance (stroma co-culture versus mono-culture),[11],induced resistance
same,accumulation of BTZ (boron content) in cells versus control,[12],very similar to the levels measured in control
same,proteasome activity inhibition,"[13]; BTZ 5 nM or equivalent, 2 h, MM cells (Experiment 7)",50%
same,inhibition in the proteasome activity,"[13]; BTZ 5 nM or equivalent, without inhibition of the uptake routs (Experiment 8)",about 40%
same,effect of inhibition of macropinocytosis or endocytosis pathways on proteasome activity,[13],led to any significant effect
same,effect of inhibition of macropinocytosis or endocytosis pathways on proteasome activity,[13]; listed as BTZ,did not induce any change
C=C1[C@@H](C)[C@H]2[C@H](Cc3ccccc3)NC(=O)[C@]23[C@H](OC(C)=O)/C=C/[C@@](C)(O)C(=O)[C@@H](C)C/C=C/[C@H]3[C@@H]1O [cytochalasin D],decrease of the uptake of the anti-CD38 NPs,[1],did not affect
same,effect on cell survival,[2],no effect on cell survival
